Laboratory results published in US20020147210A1, “Methods for delaying recurrence of herpes virus symptoms” (3M Innovative Properties Company, priority 2000, published 2002).

System: recurrent herpes genitalis (herpes virus)
Assay: Randomized, double-blind vehicle-controlled clinical study of resiquimod gel formulations topically applied to herpetic lesions of the external genitalia
Format: in vivo, human
Conditions: topical, patients with recurrent herpes genitalis, 6 month observation period
Experimental: Propylene glycol (700 g) and resiquimod (4-amino-2-ethoxymethyl-α,α-dimethyl-1H-imidazo[4,5-c]quinoline-1-ethanol, 1.4 g) were added to a 1000 mL glass beaker. The resulting mixture was heated (about 55° C.) with stirring until all of the resiquimod was dissolved. The resulting solution was added to the mixing bowl of a ROSS LDM-4 mixer. Triacetin (11,968.7 g) was added to the mixing bowl and the resulting mixture was mixed for 10 minutes at 36 rpm. Colloidal silicon dioxide (1,330.0 g, AEROSIL®200 from Degussa, Frankfurt, Germany) was added in five parts. After each addition the resulting mixture was mixed at ambient pressure for 1 to 2 minutes at 36 rpm and then under vacuum (18 inches of Hg below ambient pressure, […]) for about 9 minutes at 36 rpm. The sides of the mixing bowl and the mixing blades were scraped. The formulation was mixed under vacuum (17 inches of Hg below ambient pressure, […]) for about 10 minutes at 36 rpm. The resulting gel contained 0.01% resiquimod, 5.0% propylene glycol, 9.5% colloidal silicon dioxide, and 85.49% triacetin.
Using the method described above, a second formulation was prepared by combining 7.0 g of resiquimod, 700.0 g of propylene glycol, 11963.0 g of triacetin and 1,330.0 g of colloidal silicon dioxide. The resulting gel contained 0.05% resiquimod, 5.0% propylene glycol, 9.5% colloidal silicon dioxide, and 85.45% triacetin.
A randomized, double-blind vehicle (placebo)-controlled study was performed to evaluate single and multi-weekly doses of the resiquimod formulations prepared above topically applied to herpetic lesions on the skin of the external genitalia.
52 otherwise healthy patients (20 to 60 years of age, inclusive) with a history of recurrent herpes genitalis (≧6 episodes per year) participated in the study. […] After passing screening, patients were enrolled into a 12-week eligibility period to qualify for treatment by virtue of experiencing a herpetic recurrence. During the eligibility period patients' qualified for the treatment period by coming to the study site for treatment visit one within 24 hours of a recurrence. At this visit patients were stratified by sex and enrolled sequentially into an active treatment or vehicle treatment regimen.
The treatment period began with the first treatment visit and ended with the final treatment visit. The treatment groups were 0.05 percent resiquimod containing formulation or formulation alone (vehicle) 1×/week for 4 weeks; 0.05 percent resiquimod containing formulation or formulation alone 2×/week for 3 weeks; 0.01 percent resiquimod formulation or formulation alone 2×/week for 3 weeks; or 0.01 percent resiquimod formulation or formulation alone 3×/week for 3 weeks. […]

CCOCc1nc2c(N)nc3ccccc3c2n1CC(C)(C)O [Resiquimod, 4-amino-α,α-dimethyl-2-ethoxymethyl-1H-imidazo[4,5-c]quinoline-1-ethanol]
Median No. Days to Recurrence after treatment cessation (0.01% resiquimod gel, 2×/wk, 3 weeks): 172.5 days | Median No. Days to Recurrence after treatment cessation (0.01% resiquimod gel, 3×/wk, 3 weeks): >195 days | Median No. Days to Recurrence after treatment cessation (0.05% resiquimod gel, 1×/wk, 4 weeks): >60 days | Median No. Days to Recurrence after treatment cessation (0.05% resiquimod gel, 2×/wk, 3 weeks): 105 days
